Earlier results in patent publication US9624424B2, “Large stokes shift dyes” (LIFE TECHNOLOGIES CORPORATION, priority 2009, dated 2017).

Extinction coefficient around 605 nm (commercial dyes emitting at 750-800 nm), ~15,000 M^−1cm^−1:
CCN1C(=CC=CC=CC=CC2=[N+](CCCCCC(=O)O)c3ccc(S(=O)(=O)O)cc3C2(C)C)C(C)(C)c2cc(S(=O)(=O)[O-])ccc21 [Cy7]
CC(C)(C)c1cc(/C=C/C=C/C=C2/N(CCCS(=O)(=O)[O-])c3ccc(S(=O)(=O)[O-])cc3C2(C)CCCC(=O)O)c2ccc(=[N+](CCCS(=O)(=O)[O-])CCCS(=O)(=O)[O-])cc-2o1.[Na+].[Na+].[Na+] (stereo not shown) [Dy734]
CCN1c2cc3c(cc2C(C)=CC1(C)C)C(=CC=CC=CC1=[N+](CCCCCC(=O)O)c2ccc(S(=O)(=O)[O-])cc2C1(C)C)C=C(C(C)(C)C)O3 [Dy750]
AlexaFluor 750 [AF750]
